# Patent publication US10351548B2, “2-oxo-1,2-dihydropyridine-3-carboxamide compounds and their use as inhibitors of PDK1” (INTERNATIONAL SOCIETY FOR DRUG DEVELOPMENT S.R.L., priority 2015, dated 2019)
# Like-named read-outs stand apart in the source and are kept apart here.
# Tests used:
# Assay in all cases: IB35 kinases profiling at 100 nM (ZLYTE)
# Type in all cases: biochemical
# CAMK2A (CaMKII alpha) = CAMK2A (CaMKII alpha) (Homo sapiens (Human), UniProt Q9UQM7); conditions: IB35 100 nM, ATP Km app
# Excerpt: (§1) The results are reported below
# MARK1 (MARK) = MARK1 (MARK) (Homo sapiens (Human), UniProt Q9P0L2); conditions: IB35 100 nM, ATP Km app
# Excerpt: as §1
# AKT1 (PKB alpha) = AKT1 (PKB alpha) (Homo sapiens (Human), UniProt P31749); conditions: IB35 100 nM, ATP Km app
# Excerpt: as §1
# MAP2K1 (MEK1) = MAP2K1 (MEK1) (Homo sapiens (Human), UniProt Q02750); conditions: IB35 100 nM, ATP 100
# Excerpt: as §1
# GRK5 = GRK5 (Homo sapiens (Human), UniProt P34947); conditions: IB35 100 nM, ATP Km app
# Excerpt: as §1
# CSNK1A1 (CK1 alpha 1) = CSNK1A1 (CK1 alpha 1) (Homo sapiens (Human), UniProt P48729); conditions: IB35 100 nM, ATP Km app
# Excerpt: as §1
# PRKCB1 (PKC beta I) = PRKCB1 (PKC beta I) (Homo sapiens (Human), UniProt P05771); conditions: IB35 100 nM, ATP Km app
# Excerpt: as §1
# LCK = LCK (Homo sapiens (Human), UniProt P06239); conditions: IB35 100 nM, ATP Km app
# Excerpt: as §1
# CDK5/p35 = CDK5/p35 (Homo sapiens (Human), UniProt Q00535); conditions: IB35 100 nM, ATP Km app
# Excerpt: as §1
# PRKCA (PKC alpha) = PRKCA (PKC alpha) (Homo sapiens (Human), UniProt P17252); conditions: IB35 100 nM, ATP Km app
# Excerpt: as §1
# PRKACA (PKA) = PRKACA (PKA) (Homo sapiens (Human), UniProt P17612); conditions: IB35 100 nM, ATP Km app
# Excerpt: as §1
# ITK = ITK (Homo sapiens (Human), UniProt Q08881); conditions: IB35 100 nM, ATP Km app
# Excerpt: as §1
# AURKA (Aurora A) = AURKA (Aurora A) (Homo sapiens (Human), UniProt O14965); conditions: IB35 100 nM, ATP Km app
# Excerpt: as §1
# JAK1 = JAK1 (Homo sapiens (Human), UniProt P23458); conditions: IB35 100 nM, ATP Km app
# Excerpt: as §1
# AMPK A2/B1/G1 = AMPK A2/B1/G1 (Homo sapiens (Human), UniProt P54646); conditions: IB35 100 nM, ATP Km app
# Excerpt: as §1
# CSNK1G1 (CK1 gamma 1) = CSNK1G1 (CK1 gamma 1) (Homo sapiens (Human), UniProt Q9HCP0); conditions: IB35 100 nM, ATP Km app
# Excerpt: as §1
# GSK3A (GSK3 alpha) = GSK3A (GSK3 alpha) (Homo sapiens (Human), UniProt P49840); conditions: IB35 100 nM, ATP Km app
# Excerpt: as §1
# CDK5/p25 = CDK5/p25 (Homo sapiens (Human), UniProt Q00535); conditions: IB35 100 nM, ATP Km app
# Excerpt: as §1
# CLK1 = CLK1 (Homo sapiens (Human), UniProt P49759); conditions: IB35 100 nM, ATP Km app
# Excerpt: as §1
# CHEK1 (CHK1) = CHEK1 (CHK1) (Homo sapiens (Human), UniProt O14757); conditions: IB35 100 nM, ATP Km app
# Excerpt: as §1
# PRKCE (PKC epsilon) = PRKCE (PKC epsilon) (Homo sapiens (Human), UniProt Q02156); conditions: IB35 100 nM, ATP Km app
# Excerpt: as §1
# MAP2K2 (MEK2) = MAP2K2 (MEK2) (Homo sapiens (Human), UniProt P36507); conditions: IB35 100 nM, ATP 100
# Excerpt: as §1
# CDK1/cyclin B = CDK1/cyclin B (Homo sapiens (Human), UniProt P06493); conditions: IB35 100 nM, ATP Km app
# Excerpt: as §1
# MAPKAPK2 = MAPKAPK2 (Homo sapiens (Human), UniProt P49137); conditions: IB35 100 nM, ATP Km app
# Excerpt: as §1
# MAPK1 (ERK2) = MAPK1 (ERK2) (Homo sapiens (Human), UniProt P28482); conditions: IB35 100 nM, ATP Km app
# Excerpt: as §1
# SRC = SRC (Homo sapiens (Human), UniProt P12931); conditions: IB35 100 nM, ATP Km app
# Excerpt: as §1
# CDK2/cyclin A = CDK2/cyclin A (Homo sapiens (Human), UniProt P24941); conditions: IB35 100 nM, ATP Km app
# Excerpt: as §1
# Chain of CSNK1A1 (CK1 alpha 1) (P48729 whole entry, species assumed): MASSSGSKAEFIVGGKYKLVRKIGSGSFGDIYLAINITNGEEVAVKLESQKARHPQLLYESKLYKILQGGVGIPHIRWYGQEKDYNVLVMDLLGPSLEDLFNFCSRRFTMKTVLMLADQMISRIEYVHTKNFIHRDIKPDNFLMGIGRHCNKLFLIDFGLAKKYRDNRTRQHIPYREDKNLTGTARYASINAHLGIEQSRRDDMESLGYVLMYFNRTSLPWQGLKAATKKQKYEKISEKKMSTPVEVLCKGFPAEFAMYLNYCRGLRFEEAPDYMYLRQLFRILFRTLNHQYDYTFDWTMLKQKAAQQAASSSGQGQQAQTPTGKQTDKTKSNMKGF
# Chain of LCK (P06239 whole entry, species assumed): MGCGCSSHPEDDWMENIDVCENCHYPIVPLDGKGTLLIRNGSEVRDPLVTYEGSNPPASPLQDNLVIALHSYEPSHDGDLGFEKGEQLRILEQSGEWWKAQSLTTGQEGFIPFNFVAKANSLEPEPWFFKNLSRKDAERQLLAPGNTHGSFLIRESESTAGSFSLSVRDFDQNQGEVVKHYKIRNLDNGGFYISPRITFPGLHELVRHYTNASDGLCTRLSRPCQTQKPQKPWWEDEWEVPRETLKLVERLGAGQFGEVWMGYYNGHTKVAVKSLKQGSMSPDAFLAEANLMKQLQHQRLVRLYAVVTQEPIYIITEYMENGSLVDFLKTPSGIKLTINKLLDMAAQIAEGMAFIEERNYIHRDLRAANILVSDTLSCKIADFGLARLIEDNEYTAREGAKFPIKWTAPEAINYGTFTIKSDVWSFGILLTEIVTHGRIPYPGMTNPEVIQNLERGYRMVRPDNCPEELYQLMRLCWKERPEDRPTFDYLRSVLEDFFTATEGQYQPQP
# Chain of AKT1 (PKB alpha) (P31749 whole entry): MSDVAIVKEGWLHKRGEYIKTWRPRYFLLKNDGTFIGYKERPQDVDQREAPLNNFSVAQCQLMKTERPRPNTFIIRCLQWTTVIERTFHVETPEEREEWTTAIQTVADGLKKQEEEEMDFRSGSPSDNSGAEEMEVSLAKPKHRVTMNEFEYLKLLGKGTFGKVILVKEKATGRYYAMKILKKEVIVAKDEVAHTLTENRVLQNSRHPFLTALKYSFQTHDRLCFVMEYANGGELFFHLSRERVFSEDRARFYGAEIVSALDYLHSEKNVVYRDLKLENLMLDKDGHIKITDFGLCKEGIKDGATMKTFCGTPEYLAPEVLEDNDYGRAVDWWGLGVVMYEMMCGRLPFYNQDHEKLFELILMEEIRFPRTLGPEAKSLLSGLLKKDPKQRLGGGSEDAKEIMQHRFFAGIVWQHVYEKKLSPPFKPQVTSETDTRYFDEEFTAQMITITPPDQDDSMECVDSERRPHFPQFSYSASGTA
# Chain of AURKA (Aurora A) (O14965 whole entry): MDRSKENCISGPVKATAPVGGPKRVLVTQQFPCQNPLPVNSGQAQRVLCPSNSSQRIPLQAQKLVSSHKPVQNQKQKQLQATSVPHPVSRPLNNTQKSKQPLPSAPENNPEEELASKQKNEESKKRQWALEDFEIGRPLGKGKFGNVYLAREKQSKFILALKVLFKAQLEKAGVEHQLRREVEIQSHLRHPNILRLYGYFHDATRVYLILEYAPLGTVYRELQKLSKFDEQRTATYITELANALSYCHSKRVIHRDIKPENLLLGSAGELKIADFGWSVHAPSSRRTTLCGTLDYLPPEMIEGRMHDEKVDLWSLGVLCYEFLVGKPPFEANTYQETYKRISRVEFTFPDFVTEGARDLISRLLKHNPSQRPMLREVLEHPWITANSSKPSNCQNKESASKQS
# Chain of MAPK1 (ERK2) (P28482 whole entry, species assumed): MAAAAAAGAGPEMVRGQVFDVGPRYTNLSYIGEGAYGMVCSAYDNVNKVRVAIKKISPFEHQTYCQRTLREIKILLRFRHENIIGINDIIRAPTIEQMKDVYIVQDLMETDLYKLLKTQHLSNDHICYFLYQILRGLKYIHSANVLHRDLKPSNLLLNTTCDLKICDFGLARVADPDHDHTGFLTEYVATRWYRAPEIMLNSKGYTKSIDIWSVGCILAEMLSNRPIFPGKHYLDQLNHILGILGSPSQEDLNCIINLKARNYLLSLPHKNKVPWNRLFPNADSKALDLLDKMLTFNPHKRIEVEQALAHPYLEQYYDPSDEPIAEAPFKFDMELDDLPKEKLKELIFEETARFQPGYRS
# Chain of ITK (Q08881 whole entry, species assumed): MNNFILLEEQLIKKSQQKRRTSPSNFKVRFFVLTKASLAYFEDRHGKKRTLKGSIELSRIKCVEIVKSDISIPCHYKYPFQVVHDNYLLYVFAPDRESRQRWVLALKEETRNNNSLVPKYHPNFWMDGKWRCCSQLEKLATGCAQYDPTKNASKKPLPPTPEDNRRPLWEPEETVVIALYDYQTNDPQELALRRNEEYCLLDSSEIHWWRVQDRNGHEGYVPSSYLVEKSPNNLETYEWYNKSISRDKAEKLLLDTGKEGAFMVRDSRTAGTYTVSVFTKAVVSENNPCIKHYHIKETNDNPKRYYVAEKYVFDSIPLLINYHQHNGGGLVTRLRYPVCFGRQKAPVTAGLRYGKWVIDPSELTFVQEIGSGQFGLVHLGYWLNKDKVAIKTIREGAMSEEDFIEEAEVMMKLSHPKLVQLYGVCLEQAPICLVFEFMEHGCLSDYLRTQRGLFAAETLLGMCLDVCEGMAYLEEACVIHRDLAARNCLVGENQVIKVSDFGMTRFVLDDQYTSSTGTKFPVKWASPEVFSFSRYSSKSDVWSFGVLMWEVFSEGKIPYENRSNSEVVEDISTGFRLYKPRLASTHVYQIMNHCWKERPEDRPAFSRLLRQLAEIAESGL
# Chain of GSK3A (GSK3 alpha) (P49840 whole entry, species assumed): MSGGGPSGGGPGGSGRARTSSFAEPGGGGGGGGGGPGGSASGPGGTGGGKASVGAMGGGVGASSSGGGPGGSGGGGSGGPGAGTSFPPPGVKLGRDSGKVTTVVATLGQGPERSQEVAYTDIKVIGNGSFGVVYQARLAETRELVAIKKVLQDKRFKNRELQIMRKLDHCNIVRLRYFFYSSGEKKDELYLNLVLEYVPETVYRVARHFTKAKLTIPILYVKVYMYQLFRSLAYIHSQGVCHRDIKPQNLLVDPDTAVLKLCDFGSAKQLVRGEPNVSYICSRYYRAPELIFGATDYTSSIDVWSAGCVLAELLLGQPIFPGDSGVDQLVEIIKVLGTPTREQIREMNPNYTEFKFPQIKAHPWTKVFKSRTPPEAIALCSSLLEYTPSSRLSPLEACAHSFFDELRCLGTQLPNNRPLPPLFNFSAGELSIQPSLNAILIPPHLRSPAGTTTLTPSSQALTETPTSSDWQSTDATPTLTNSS
# Chain of CSNK1G1 (CK1 gamma 1) (Q9HCP0 whole entry, species assumed): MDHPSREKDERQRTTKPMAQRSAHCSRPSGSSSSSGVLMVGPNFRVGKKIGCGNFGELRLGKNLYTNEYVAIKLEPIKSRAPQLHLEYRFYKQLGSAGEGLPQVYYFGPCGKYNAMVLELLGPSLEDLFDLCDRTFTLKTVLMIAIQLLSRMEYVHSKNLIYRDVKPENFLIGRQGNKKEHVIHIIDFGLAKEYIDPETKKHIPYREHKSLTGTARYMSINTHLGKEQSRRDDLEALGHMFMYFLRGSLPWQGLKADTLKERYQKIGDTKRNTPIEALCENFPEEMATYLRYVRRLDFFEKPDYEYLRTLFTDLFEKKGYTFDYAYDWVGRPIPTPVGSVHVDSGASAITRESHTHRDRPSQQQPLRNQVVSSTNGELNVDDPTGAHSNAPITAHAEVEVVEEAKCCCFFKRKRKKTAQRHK
# Chain of CHEK1 (CHK1) (O14757 whole entry): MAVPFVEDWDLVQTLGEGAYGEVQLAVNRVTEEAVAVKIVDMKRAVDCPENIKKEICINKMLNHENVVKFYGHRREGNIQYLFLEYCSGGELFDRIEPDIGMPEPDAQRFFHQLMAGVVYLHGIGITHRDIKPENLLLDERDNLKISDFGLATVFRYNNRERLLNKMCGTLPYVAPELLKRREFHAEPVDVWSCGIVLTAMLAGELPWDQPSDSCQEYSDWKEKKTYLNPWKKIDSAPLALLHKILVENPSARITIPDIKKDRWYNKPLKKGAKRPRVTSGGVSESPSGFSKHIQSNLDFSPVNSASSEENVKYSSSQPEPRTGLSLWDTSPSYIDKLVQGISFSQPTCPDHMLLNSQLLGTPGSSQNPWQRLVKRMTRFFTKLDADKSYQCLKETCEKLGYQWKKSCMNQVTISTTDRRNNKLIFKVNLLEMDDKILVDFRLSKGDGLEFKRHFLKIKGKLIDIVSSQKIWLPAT
structure (smiles),measurement,setting,value
"O=C(CNC(=O)c1cccn(Cc2ccc(F)c(F)c2)c1=O)Nc1ccc2c(c1)/C(=C/c1cnc[nH]1)C(=O)N2 [IB35, (Z)—N-(2-((3-((1H-imidazol-5-yl)methylene)-2-oxoindolin-5-yl)amino)-2-oxoethyl)-1-(3,4-difluorobenzyl)-2-oxo-1,2-dihydro pyridine-3-carboxamide]",inhibition at 0.1 µM,CAMK2A (CaMKII alpha); read-out: % Inhibition 1,-1%
same,inhibition at 0.1 µM,CAMK2A (CaMKII alpha); read-out: % Inhibition 2,2%
same,inhibition at 0.1 µM,CAMK2A (CaMKII alpha); read-out: % Inhibition Avg,0%
same,inhibition at 0.1 µM,MARK1 (MARK); read-out: % Inhibition 1,20%
same,inhibition at 0.1 µM,MARK1 (MARK); read-out: % Inhibition 2,13%
same,inhibition at 0.1 µM,MARK1 (MARK); read-out: % Inhibition Avg,17%
same,inhibition at 0.1 µM,AKT1 (PKB alpha); read-out: % Inhibition 1,-6%
same,inhibition at 0.1 µM,AKT1 (PKB alpha); read-out: % Inhibition 2,-9%
same,inhibition at 0.1 µM,AKT1 (PKB alpha); read-out: % Inhibition Avg,-8%
same,inhibition at 0.1 µM,MAP2K1 (MEK1); read-out: % Inhibition 1,-20%
same,inhibition at 0.1 µM,MAP2K1 (MEK1); read-out: % Inhibition 2,-6%
same,inhibition at 0.1 µM,MAP2K1 (MEK1); read-out: % Inhibition Avg,-13%
same,inhibition at 0.1 µM,GRK5; read-out: % Inhibition 1,-7%
same,inhibition at 0.1 µM,GRK5; read-out: % Inhibition 2,0%
same,inhibition at 0.1 µM,GRK5; read-out: % Inhibition Avg,-4%
same,inhibition at 0.1 µM,CSNK1A1 (CK1 alpha 1); read-out: % Inhibition 1,-3%
same,inhibition at 0.1 µM,CSNK1A1 (CK1 alpha 1); read-out: % Inhibition 2,-2%
same,inhibition at 0.1 µM,CSNK1A1 (CK1 alpha 1); read-out: % Inhibition Avg,-2%
same,inhibition at 0.1 µM,PRKCB1 (PKC beta I); read-out: % Inhibition 1,-10%
same,inhibition at 0.1 µM,PRKCB1 (PKC beta I); read-out: % Inhibition 2,-10%
same,inhibition at 0.1 µM,PRKCB1 (PKC beta I); read-out: % Inhibition Avg,-10%
same,inhibition at 0.1 µM,LCK; read-out: % Inhibition 1,10%
same,inhibition at 0.1 µM,LCK; read-out: % Inhibition 2,8%
same,inhibition at 0.1 µM,LCK; read-out: % Inhibition Avg,9%
same,inhibition at 0.1 µM,CDK5/p35; read-out: % Inhibition 1,-2%
same,inhibition at 0.1 µM,CDK5/p35; read-out: % Inhibition 2,6%
same,inhibition at 0.1 µM,CDK5/p35; read-out: % Inhibition Avg,2%
same,inhibition at 0.1 µM,PRKCA (PKC alpha); read-out: % Inhibition 1,-2%
same,inhibition at 0.1 µM,PRKCA (PKC alpha); read-out: % Inhibition 2,2%
same,inhibition at 0.1 µM,PRKCA (PKC alpha); read-out: % Inhibition Avg,0%
same,inhibition at 0.1 µM,PRKACA (PKA); read-out: % Inhibition 1,-5%
same,inhibition at 0.1 µM,PRKACA (PKA); read-out: % Inhibition 2,-5%
same,inhibition at 0.1 µM,PRKACA (PKA); read-out: % Inhibition Avg,-5%
same,inhibition at 0.1 µM,ITK; read-out: % Inhibition 1,17%
same,inhibition at 0.1 µM,ITK; read-out: % Inhibition 2,12%
same,inhibition at 0.1 µM,ITK; read-out: % Inhibition Avg,14%
same,inhibition at 0.1 µM,AURKA (Aurora A); read-out: % Inhibition 1,37%
same,inhibition at 0.1 µM,AURKA (Aurora A); read-out: % Inhibition 2,38%
same,inhibition at 0.1 µM,AURKA (Aurora A); read-out: % Inhibition Avg,38%
same,inhibition at 0.1 µM,JAK1; read-out: % Inhibition 1,-10%
same,inhibition at 0.1 µM,JAK1; read-out: % Inhibition 2,-6%
same,inhibition at 0.1 µM,JAK1; read-out: % Inhibition Avg,-8%
same,inhibition at 0.1 µM,AMPK A2/B1/G1; read-out: % Inhibition 1,10%
same,inhibition at 0.1 µM,AMPK A2/B1/G1; read-out: % Inhibition 2,11%
same,inhibition at 0.1 µM,AMPK A2/B1/G1; read-out: % Inhibition Avg,10%
same,inhibition at 0.1 µM,CSNK1G1 (CK1 gamma 1); read-out: % Inhibition 1,3%
same,inhibition at 0.1 µM,CSNK1G1 (CK1 gamma 1); read-out: % Inhibition 2,2%
same,inhibition at 0.1 µM,CSNK1G1 (CK1 gamma 1); read-out: % Inhibition Avg,3%
same,inhibition at 0.1 µM,GSK3A (GSK3 alpha); read-out: % Inhibition 1,43%
same,inhibition at 0.1 µM,GSK3A (GSK3 alpha); read-out: % Inhibition 2,43%
same,inhibition at 0.1 µM,GSK3A (GSK3 alpha); read-out: % Inhibition Avg,43%
same,inhibition at 0.1 µM,CDK5/p25; read-out: % Inhibition 1,-7%
same,inhibition at 0.1 µM,CDK5/p25; read-out: % Inhibition 2,-10%
same,inhibition at 0.1 µM,CDK5/p25; read-out: % Inhibition Avg,-8%
same,inhibition at 0.1 µM,CLK1; read-out: % Inhibition 1,4%
same,inhibition at 0.1 µM,CLK1; read-out: % Inhibition 2,-7%
same,inhibition at 0.1 µM,CLK1; read-out: % Inhibition Avg,-2%
same,inhibition at 0.1 µM,CHEK1 (CHK1); read-out: % Inhibition 1,10%
same,inhibition at 0.1 µM,CHEK1 (CHK1); read-out: % Inhibition 2,2%
same,inhibition at 0.1 µM,CHEK1 (CHK1); read-out: % Inhibition Avg,6%
same,inhibition at 0.1 µM,PRKCE (PKC epsilon); read-out: % Inhibition 1,4%
same,inhibition at 0.1 µM,PRKCE (PKC epsilon); read-out: % Inhibition 2,3%
same,inhibition at 0.1 µM,PRKCE (PKC epsilon); read-out: % Inhibition Avg,3%
same,inhibition at 0.1 µM,MAP2K2 (MEK2); read-out: % Inhibition 1,13%
same,inhibition at 0.1 µM,MAP2K2 (MEK2); read-out: % Inhibition 2,6%
same,inhibition at 0.1 µM,MAP2K2 (MEK2); read-out: % Inhibition Avg,9%
same,inhibition at 0.1 µM,CDK1/cyclin B; read-out: % Inhibition 1,10%
same,inhibition at 0.1 µM,CDK1/cyclin B; read-out: % Inhibition 2,3%
same,inhibition at 0.1 µM,CDK1/cyclin B; read-out: % Inhibition Avg,6%
same,inhibition at 0.1 µM,MAPKAPK2; read-out: % Inhibition 1,-2%
same,inhibition at 0.1 µM,MAPKAPK2; read-out: % Inhibition 2,2%
same,inhibition at 0.1 µM,MAPKAPK2; read-out: % Inhibition Avg,0%
same,inhibition at 0.1 µM,MAPK1 (ERK2); read-out: % Inhibition 1,5%
same,inhibition at 0.1 µM,MAPK1 (ERK2); read-out: % Inhibition 2,6%
same,inhibition at 0.1 µM,MAPK1 (ERK2); read-out: % Inhibition Avg,6%
same,inhibition at 0.1 µM,SRC; read-out: % Inhibition 1,8%
same,inhibition at 0.1 µM,SRC; read-out: % Inhibition 2,6%
same,inhibition at 0.1 µM,SRC; read-out: % Inhibition Avg,7%
same,inhibition at 0.1 µM,CDK2/cyclin A; read-out: % Inhibition 1,-1%
same,inhibition at 0.1 µM,CDK2/cyclin A; read-out: % Inhibition 2,8%
same,inhibition at 0.1 µM,CDK2/cyclin A; read-out: % Inhibition Avg,4%
